TGI and GI50 data for 23 compounds are collected here from PubChem BioAssay (NCI).

What all share (test): inhibition of tumour cell growth, NCI panel, 48 h
The test system of assay [1] is ACHN renal.
Assay [2] relates to CCRF-CEM leukemia.
Assay [3] concerns EKVX NSCLC.
Assay [4] has as its system IGROV1 ovarian.
In assay [5] the test system is NCI-H226 lung.
In assay [6] the test system is OVCAR-3 ovarian.
Assay [7] relates to SK-OV-3 ovarian.
The test system of assay [8] is SN12C renal.
The test system of assay [9] is SR leukemia.
Assay [10] deals with UO-31 renal.

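Interpolation was linear, between the two tested concentrations surrounding the appropriate level; five concentrations were tested over 48 hours in 96-well plates. At the GI50, growth is halved. TGI: concentration producing complete growth inhibition.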

On to `COC(=O)CCc1cc(OC)c2oc(-c3ccc(OC)c(OC)c3)c(CO)c2c1`, for which the TGI in assay [1], in assay [2], in assay [3], in assay [4], in assay [5] and in [6] was more than 100 µM each time. The TGI in assay [7], in assay [8], in assay [9] and in [10] was more than 100 µM each time.

On to `CCOC(OCC)[C@@H]1C[C@@H]2N(O[C@H](OC3CCCC3(c3ccccc3)c3ccccc3)[C@H](OC(C)=O)[C@@]2(CC)Cc2ccc(OC)c(OC)c2)O1` (stereo partly specified), for which the TGI in [1], in [2], in assay [3], in assay [4], in assay [5] and in [6] was more than 100 µM in each case. In addition, the TGI in assay [7], in [8], in assay [9] and in assay [10] was more than 100 µM throughout.

Regarding `O=C(N/N=C\c1ccc(Cl)cc1)Nc1cccc2ccccc12`, the TGI in assay [1] is 4.92 µM; in assay [2], more than 31.9 µM; in assay [3] it was more than 100 µM; in assay [4], more than 25.8 µM; in assay [5], more than 30 µM; in [6] it was 3.24 µM. Further, the TGI in [7] is 6.75 µM; in [8], 76 µM; in assay [9], 9.11 µM; in assay [10] it was 4.84 µM.

`CCOC(=O)C12CCC(c3c(C)cccc3C)(O1)C(C(=O)OC)=C2C(=O)OC` (stereo unspecified): the TGI in assay [1] was more than 10 µM; in [2] it was more than 10 µM; in [3] it was more than 10 µM; in [4], more than 10 µM; in assay [5], more than 10 µM; in assay [6], 4.2 µM. In addition, the TGI in assay [7] was more than 10 µM; in assay [8], more than 10 µM; in assay [9] it was 6.06 µM; in assay [10], more than 10 µM.

For `Cc1nc2c(n1Cc1ccc(F)cc1)C(=O)c1ccccc1C2=O`, the TGI was more than 100 µM in [1]; more than 100 µM in assay [2]; more than 100 µM in assay [3]; more than 100 µM in [4]; more than 100 µM in [5]; 48.6 µM in assay [6]. In addition, the TGI in assay [7], in assay [8], in [9] and in assay [10] was more than 100 µM throughout.

On to `CC1=C(N2CC2)C(=O)C(C)=C(N2CC2)C1=O`, for which the TGI in [1] came to 0.445 µM; in assay [2] it was 3.3 µM; in assay [3], 2.68 µM; in [4], 1.31 µM; in [5], 1.18 µM; in assay [6] it was 0.658 µM. Moreover, the TGI came to 2.9 µM in assay [7], 1.59 µM in assay [8], 5.72 µM in [9] and 0.353 µM in [10].

For the compound `O=[N+]([O-])c1ccc(C2NC(=S)NC3c4cc([N+](=O)[O-])ccc4CCCC23)cc1` (stereo unspecified), the TGI in assay [1], in assay [2], in [3], in [4], in [5] and in assay [6] was more than 100 µM in each case. Moreover, the TGI in assay [7], in assay [8], in [9] and in assay [10] was more than 100 µM each time.

Turning to `O=C(O)c1ccccc1/C=N\N(CCO)C1=NCCN1`, the TGI in assay [1], in assay [2], in [3], in assay [4], in [5] and in assay [6] was more than 100 µM each time. For the same compound, the TGI in assay [7], in [8], in assay [9] and in [10] was more than 100 µM throughout.

For `Cc1cc(S(=O)(=O)Nc2nnc3c(Cl)cc(C(F)(F)F)cn23)c(S)cc1Cl`, the TGI in [1], in [2], in assay [3], in [4], in [5] and in [6] was more than 100 µM each time. For the same compound, the TGI in assay [7], in assay [8], in assay [9] and in [10] was more than 100 µM throughout.

On to `CC(C)C1CCC(=O)CC1CCCCC1CC(=O)CC1O[Si](C)(C)C(C)(C)C` (stereo unspecified), for which the TGI in [1] is 15.2 µM; in assay [2], more than 22.2 µM; in assay [3], 36.1 µM; in assay [4], 8.24 µM; in assay [5], 15.5 µM; in [6] it was more than 47.5 µM. Further, the TGI in [7] was 25.7 µM; in [8], 22.3 µM; in assay [9], more than 35.1 µM; in assay [10], 20.2 µM.

`COc1ccc(OC)c(CCc2ccccc2CC(=O)O)c1`: the TGI in assay [1], in [2], in [3], in assay [4], in assay [5] and in [6] was more than 100 µM each time. The TGI in assay [7], in assay [8], in [9] and in assay [10] was more than 100 µM each time.

Take `COc1cc(C2SCC(=O)N2c2ccc(Cl)cc2)cc(OC)c1OC` (stereo unspecified): the TGI in assay [1] was more than 100 µM; in [2], 30.6 µM; in assay [3], more than 60.1 µM; in assay [4] it was more than 100 µM; in assay [5], 98.4 µM; in [6] it was more than 100 µM. The TGI is more than 100 µM in [7], more than 100 µM in assay [8], 39.2 µM in assay [9] and more than 100 µM in assay [10].

Consider `CC1=NC(=O)CNN1C1=NNC2(C(=O)N1)c1ccccc1-c1ccccc12`, for which the TGI in assay [1], in assay [2], in assay [3], in assay [4], in [5] and in assay [6] was more than 100 µM in each case. The TGI in assay [7], in [8], in [9] and in [10] was more than 100 µM each time.

Consider `O=C1/C(=C/c2cccc([N+](=O)[O-])c2)Cc2ccccc21`, for which the TGI in assay [1], in [2], in [3], in assay [4], in assay [5] and in assay [6] was more than 100 µM throughout. The TGI in assay [7], in [8], in [9] and in assay [10] was more than 100 µM each time.

On to `CC(C)NC(=O)OCc1c(COC(=O)NC(C)C)c(-c2cc[n+](COC(=O)Cc3ccccc3)cc2)n2c1CCC2`, for which the TGI in assay [1], in [2], in assay [3], in assay [4], in [5] and in [6] was more than 100 µM in each case. For the same compound, the TGI in [7], in assay [8], in assay [9] and in assay [10] was more than 100 µM throughout.

For the compound `CC(C)(CN1CCCCC1)C(=O)CC(SCCS(=O)(=O)O)c1ccccc1` (stereo unspecified), the TGI in [1] was 52.9 µM; in assay [2], 32.1 µM; in assay [3], 50.5 µM; in assay [4], more than 100 µM; in assay [5] it was 62 µM; in assay [6], 29.8 µM. For the same compound, the TGI was more than 100 µM in assay [7], 58.6 µM in assay [8], 13.9 µM in assay [9] and 25.1 µM in assay [10].

Consider `O=C(OCC1CC(C2(O)CCCCC2)C(=O)O1)c1ccccc1` (stereo unspecified), for which the TGI in [1], in [2], in assay [3], in [4], in assay [5] and in assay [6] was more than 100 µM in each case. The TGI in assay [7], in [8], in [9] and in assay [10] was more than 100 µM in each case.

On to `CC(=O)OC1CC2C(=O)CC1(C)C2(C)C` (stereo unspecified), for which the TGI in [1], in assay [2], in assay [3], in assay [4], in [5] and in assay [6] was more than 100 µM in each case. Also, the TGI in [7], in assay [8], in [9] and in assay [10] was more than 100 µM throughout. Further, in assay [4], the GI50 is more than 100 µM.

Consider `CC1=C(C(=O)NNC(=O)c2ccccc2O)CC(C(=O)NNC(=O)c2ccccc2O)=C(C)N1`, for which the TGI in assay [1] is more than 88.7 µM; in [2], more than 35.5 µM; in [3], more than 72.7 µM; in assay [4], more than 35.4 µM; in assay [5], more than 41.7 µM; in assay [6], more than 23.4 µM. Moreover, the TGI in assay [7] was more than 100 µM; in assay [8], more than 100 µM; in assay [9], more than 29.2 µM; in assay [10] it was 18.8 µM.

With `COc1ccc2nc3c([N+](=O)[O-])ccc4c3c(c2c1)N=CN4CCN(C)C`, the TGI in assay [1] was determined as 16.6 µM; in assay [2], 9.76 µM; in assay [3], 18 µM; in assay [4], 13.2 µM; in [5], 20.3 µM; in assay [6], 17 µM. For the same compound, the TGI is 28.9 µM in [7], 12.5 µM in assay [8], 0.855 µM in assay [9] and 11.6 µM in assay [10].

`N#CCCN(c1ccc(C=Nc2ccc(C(=O)O)cc2)cc1)S(=O)(=O)c1ccccc1`: the TGI in [1], in [2], in [3], in assay [4], in assay [5] and in [6] was more than 100 µM each time. Moreover, the TGI in assay [7], in [8], in assay [9] and in assay [10] was more than 100 µM each time.

On to `C[n+]1ccc2/c(=C\C#N)c3ccccc3n21`, for which the TGI in assay [1] is more than 100 µM; in [2], 51.4 µM; in assay [3], 85.2 µM; in assay [4] it was 78.3 µM; in [5], more than 100 µM; in assay [6], 34.2 µM. Moreover, the TGI is 83 µM in [7], more than 100 µM in [8], 56.5 µM in [9] and more than 100 µM in assay [10].

Consider `Nc1n[nH]c(N)n1`, for which the TGI in assay [1] is more than 10000 µM; in [2], more than 9030 µM; in [3], more than 7740 µM; in assay [4], more than 7740 µM; in [5] it was more than 10000 µM; in [6] it was more than 10000 µM. Besides, the TGI was more than 3570 µM in assay [7], more than 8900 µM in assay [8], 9840 µM in assay [9] and more than 10000 µM in assay [10].
